What all share (format): biochemical
Test [1] has as its target T1, His-tagged modified Rubisco (Nicotiana tabacum, UniProt P00876).
T1 construct: gene rbcL; six histidines added to the C-terminus of the large subunit; from transgenic tobacco plants; with Ribulose bisphosphate carboxylase small subunit, chloroplastic
The experiment in a line: continuous coupled 3-PGA formation assay (NADH, A340). The following applies: ECM form, 0.5 or 2 mM RuBP, 10 mM NaHCO3, 10 mM MgCl2, 5 mM ATP, pH 8, 30 °C; RuBP also inhibits as tight ER complex.

Test [2] addresses T2, tobacco Rubisco (wild-type) (Nicotiana tabacum, UniProt P00876).
T2 construct: gene rbcL; native, purified from tobacco leaves; converted to ER form or carbamylated ECM form; with Ribulose bisphosphate carboxylase small subunit, chloroplastic
Described as above. The following applies: ECM form, 0.5 or 2 mM RuBP, 10 mM NaHCO3, 10 mM MgCl2, 5 mM ATP, pH 8, 30 °C; RuBP also inhibits as tight ER complex.

The target in test [3] is T3, Arabidopsis β-RCA (Arabidopsis thaliana, UniProt P10896).
T3 construct: recombinant, expressed in Escherichia coli and purified
T3 sequence (P10896 59-446 isoform P10896-2): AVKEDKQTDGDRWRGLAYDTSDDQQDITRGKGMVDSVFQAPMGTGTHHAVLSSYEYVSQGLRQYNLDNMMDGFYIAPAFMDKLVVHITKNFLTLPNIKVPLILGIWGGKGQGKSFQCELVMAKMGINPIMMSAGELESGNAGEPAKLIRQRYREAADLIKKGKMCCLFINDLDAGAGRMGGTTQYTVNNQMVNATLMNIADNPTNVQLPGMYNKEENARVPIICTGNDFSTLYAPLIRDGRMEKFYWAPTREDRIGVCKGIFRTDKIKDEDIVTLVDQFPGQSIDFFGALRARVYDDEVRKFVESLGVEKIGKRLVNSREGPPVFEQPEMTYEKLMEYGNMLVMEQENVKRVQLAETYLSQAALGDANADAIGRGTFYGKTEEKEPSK
Description: continuous coupled Rubisco activation assay (dPGM, enolase, PEP carboxylase, malate dehydrogenase; NADH, A340). The conditions noted are these: ADP plus ATP 5 mM total at ADP:ATP 0.33; tobacco Rubisco ER form not restated for this set; pH 8, 30 °C, 10 mM MgCl2.

T1 sequence (P69249 58-180, other chains not shown): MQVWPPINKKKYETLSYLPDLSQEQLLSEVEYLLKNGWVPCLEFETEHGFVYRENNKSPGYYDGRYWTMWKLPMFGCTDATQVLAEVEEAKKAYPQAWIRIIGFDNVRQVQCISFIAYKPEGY
T2 sequence (P69249 58-180, other chains not shown): as above

On to `O=C(COP(=O)(O)O)[C@H](O)[C@H](O)COP(=O)(O)O` [RuBP], for which the “continuous coupled 3-PGA formation assay (NADH, A340)” value in test [1] is “specific activity of the ECM form of wild-type and modified Rubisco”; in test [2], “specific activity of the ECM form of wild-type and modified Rubisco”. Usually % inhibition stands for the percentage by which the read-out fell short of the control. Turning to `Nc1ncnc2c1ncn2[C@@H]1O[C@H](COP(=O)(O)OP(=O)(O)O)[C@@H](O)[C@H]1O` [ADP], the “% inhibition at 0.33 ADP:ATP” value in test [3] worked out at 25%.

The values are drawn from publication PMC3923112, “A non-radioactive method for measuring Rubisco activase activity in the presence of variable ATP: ADP ratios, including modifications for measuring the activity and activation state of Rubisco” (Photosynthesis Research, 2014).
